Reference: patent US8022050B2, “Compound for inhibiting TRPA1 function and use thereof” (Korea University Industry and Academic Collaboration …, priority 2008, dated 2011)

Columns and labels:
[1] = system: inflammatory sensitization induced by carrageenan; assay: Sensitivity to thermal stimulation (avoidance time) in carrageenan-injected mice; assay type: in vivo; details: 10 μl of 0.1% carrageenan 3 h before, 10 μl of 1 mM substance into hind paw, FIG. 4
Procedure: Equal amount of AP18 (Biomol, USA), the TRPA1 specific inhibitor, was injected into the positive control. Avoidance time was measured by using thermal stimulator (Ugo basile plant test, Italy). Each group was composed of 5 mice and beam injection was performed four times, which were averaged.

[2] = system: pain induced by cinnamaldehyde; assay: Acute hind paw licking/flicking behaviors in mice (cinnamaldehyde-induced pain, normal or inflammatory condition); assay type: in vivo; details: hind paw injection, 10 minutes, substance injected alone, FIG. 3a
Procedure: The time spent for the hind paw licking/flicking behaviors in mice were measured according to the method of Bandell M, et al. (Neuron 41:849-857, 2004) and Moqrich A, et al. (Science 307:1468-1472, 2005), for 10 minutes. • Control: non-treatment; • Experimental group 1. […] 300 μM of CA; • Experimental group 3.

Row | SMILES | Sensitivity against thermal stimulation (avoidance time) [1] | Time spent for hind paw licking/flicking behaviors, substance alone [2]
1 | CC(=C\c1ccc(Cl)cc1)/C(C)=N/O [AP18] | almost no effects | –
2 | O=CC=Cc1ccccc1 [cinnamaldehyde] | – | increased the time spent for the behaviors
